# According to patent US9248163B2, “Insulin-like growth factor binding protein 7 for treatment of cancer” (University of Massachusetts, priority 2007, dated 2016):
# Tests used:
# primary melanocytes = assay: Proliferation assay of primary melanocytes (trypan blue exclusion); format: cell-based, human; conditions: 14 days after treatment
# Protocol: (§1) For the proliferation assay shown in FIG. 1B, 1×10^4 cells stably expressing an shRNA were cultured in 12-well plate format, infected with BRAFV600E-expressing retrovirus and after 14 days stained with crystal violet. For all other quantitative proliferation assays, cell viability was measured by trypan blue exclusion test at the time point indicated in the relevant figure legend. Values were expressed as percent cell growth, as described in the relevant figure legend. For the proliferation assays shown in FIG. 2A, CM was replenished every 3 days, and proliferation was measured after a total of 14 days of CM treatment. Unless otherwise stated, rIGFBP7 was added to the culture medium at a concentration of 10 μg/ml.
# To confirm that IGFBP7 could block cellular proliferation, purified recombinant IGFBP7 (rIGFBP7) was purified from baculovirus-infected insect cells. […] Collectively, the results of FIGS. 2A-2D indicate that following expression of BRAFV600E, melanocytes synthesize and secrete increased amounts of IGFBP7, which then acts through an autocrine/paracrine pathway to induce senescence.
# melanocytes = assay: Senescence-associated β-galactosidase assay; format: cell-based, human; conditions: rIGFBP7 10 μg/ml for 14 days; growth-arrested cells
# Protocol: Melanocytes infected with a retrovirus expressing either vector or BRAFV600E, or melanocytes treated with BRAFV600E/melanocyte CM or rIGFBP7 (10 μg/ml) for 14 days were washed twice with PBS (5 minutes at room temperature), fixed with 3% formaldehyde (5 minutes at room temperature), and washed three more times with PBS. Cells were then incubated at 37° C. (0% CO2) overnight in SA-β-Gal stain solution (1 mg/mL X-Gal (5-bromo-4-chloro-3-indoyl b-D-galactoside), 40 mM citric acid/sodium phosphate (pH 6.0), 5 mM potassium ferrocyanide, 5 mM potassium ferricyanide, 150 mM NaCl and 2 mM MgCl2). Cells were washed with PBS and visualized on a Zeiss Axiovert™ 40 CFL microscope. Images were captured using QCapture™ Pro version 5 software (QImaging Corporation).
# [1] = test system: human melanoma cell lines; assay: Proliferation assay of human melanoma cell lines; format: cell-based; conditions: 24 hours, 10 μg/ml
# Protocol: as §1
# Next, the ability of IGFBP7 to block cellular proliferation in a panel of human melanoma cell lines was analyzed. The cells contained either an activating BRAF mutation (BRAFV600E; SK-MEL-28, MALME-3M, WM793B, WM39 and WM278), an activating RAS mutation (RASQ61R; SK-MEL-2, SK-MEL-103, and WM1366), or were wild type for both BRAF and RAS (CHL, SK-MEL-31, WM1321 and WM3211). For each cell line, the presence of IGFBP7 in the CM was determined by immunoblot analysis (FIG. 3A), and sensitivity to IGFBP7-induced growth inhibition was measured in a proliferation assay (FIG. 3B). The results reveal a striking inverse correlation between IGFBP7 expression and sensitivity to IGFBP7-mediated growth inhibition that correlates with the status of BRAF or RAS.
# [2] = test system: A375(Fluc-IRES-GFP) cells; assay: Pulmonary metastasis model, A375(Fluc-IRES-GFP) cells by tail vein injection
# Description: For these experiments, A375(Fluc-IRES-GFP) cells were used, which are a highly metastatic, BRAF-positive human melanoma cell line stably expressing an Fluc-IRES-GFP reporter construct (where Fluc is the firefly luciferase gene, IRES is an internal ribosomal entry site and GFP is green fluorescent protein) (Collisson et al., 2003, Cancer Res., 63:5669-5673). The presence of Fluc-IRES-GFP enables tumor growth to be quantified over time in live animals by serial bioluminescent optical imaging.
# Two treatment regimens were tested. In one set of experiments, administration of IGFBP7 was initiated 3 days after injection of A375-Fluc cells, at which time metastatic disease would be significant (FIG. 12A). In these experiments, 7×10^5 A375(Fluc-IRES-GFP) cells were injected into the tail vein of 10 athymic Balb/c (nu/nu) mice (Taconic). At days 3, 6 and 9, mice were injected via the tail vein with either 100 μg purified, recombinant IGFBP7 (n=5 mice) or, as a control, phosphate buffered saline (PBS) (n=5 mice). On day 6, mice were analyzed for quantitation of metastatic tumor burden by using a Xenogen brand bioluminescent imaging system. […] Mice were monitored daily for viability over 30 days, and the ability of systemically administered IGFBP7 to suppress metastatic disease was assessed by survival assays (Kaplan-Meier analysis).
# In a second set of experiments, administration of IGFBP7 was initiated both before and shortly after injection of A375(Fluc-IRES-GFP) cells, to test the ability of IGFBP7 to function prophylactically to prevent metastasis and/or treat early metastatic disease (FIG. 13A). In these experiments, 100 μg purified, recombinant IGFBP7 (or, as a control, PBS) was injected into the tail vein of mice (n=5 mice for each group). One day later, mice were injected with 7×10^5 A375(Fluc-IRES-GFP) cells, followed by injection of 100 μg on days 3 and 6. Mice were monitored daily for viability over 30 days, and the ability of systemically administered IGFBP7 to suppress metastatic disease was assessed by survival assays (Kaplan-Meier analysis).
# [3] = test system: BRAF-MEK-ERK signaling in SK-MEL-28 cells; assay: Immunoblot analysis of BRAF-MEK-ERK signaling (phospho-ERK, activated MEK1/2, RKIP); format: cell-based, human
# Protocol: To prepare cell extracts, cells were lysed in Laemmli buffer; for phospho-proteins, cells were lysed in the presence of a phosphatase inhibitor cocktail (Sigma). To prepare conditioned media, cells were grown in Opti-MEM™ (Invitrogen) for 24 hours, and media was harvested and concentrated using Centricon™ plus 20 tubes (Millipore). Conditioned media was normalized to cell number prior to loading the gel. For the experiments shown in FIGS. 3D and 4C, rIGFBP7 was added to the culture medium at a concentration of 10 μg/ml. For the MEK/RAF inhibitor experiment of FIG. 4D, SK-MEL-28 cells were treated with 2 μg/ml or 10 μg/ml rIGFBP7, 20 μM or 40 μM of the MEK inhibitor PD98054 (Calbiochem), or 5 nM or 10 nM the RAF inhibitor GW5074 (Sigma) for 24 hours prior to harvesting cells. Proteins were resolved by SDS-PAGE and transferred to nitrocellulose. Blots were probed with the following antibodies: α-p16 (Abcam), α-acetylated H3K9 (Upstate), α-IGFBP7 (Santa Cruz), α-SMARCB1 (Abnova), α-BNIP3L (Proscience), α-BRAFV600E (Santa Cruz), α-cleaved caspase-3 p11 (Santa Cruz), α-β-actin (Sigma), α-phospho-ERK (Cell Signaling) or α-ERK (Cell Signaling).
# To test this idea, rIGFBP7 was added to BRAFV600E-positive SK-MEL-28 melanoma cells, and the levels of total and activated ERK (phospho-ERK) were analyzed.
# SK-MEL-28 cells = assay: ChIP assays 24 hours following rIGFBP7 treatment; format: cell-based, human
# Protocol: Chromatin immunoprecipitation (ChIP) assays were performed using extracts prepared 24 hours following rIGFBP7 treatment. The following antibodies were used: α-BRG1 (de La Serna et al., 2000, Mol. Cell. Biol., 20:2839-51), α-phospho-STAT1 (Upstate), and α-SMARCB1 and α-STAT1 (Santa Cruz). For ChIP experiments on the SMARCB1 promoter, primers spanning a STAT1 binding site located ˜2.4 kb upstream of the transcription start-site were used. For ChIP experiments on the BNIP3L promoter, a series of primer-pairs that covered ˜2 kb of the BNIP3L promoter were used; following addition of rIGFBP7, SMARCB1 and BRG1 were recruited to the BNIP3L promoter near the transcription start-site. ChIP products were analyzed by quantitative real-time PCR using Platinum SYBR™ Green qPCR SuperMix-UDG with Rox (Invitrogen). Calculation of fold differences was done as previously described (Pfaffl, 2001, Nucleic Acids Res., 29:e45).
substance,measurement,setting,value
"rIGFBP7: purified recombinant human IGFBP7, C-terminal Flag-tagged, from baculovirus-infected Sf9 insect cells",proliferation of primary melanocytes,primary melanocytes,blocked proliferation of primary melanocytes in a dose-dependent manner
same,senescence-associated β-galactosidase staining,melanocytes,stained positively
same,sensitivity to IGFBP7-mediated growth inhibition,[1]; cells with wild type BRAF and RAS,relatively insensitive
same,sensitivity to IGFBP7-mediated growth inhibition,[1]; melanoma cell lines with activating BRAF mutation (BRAFV600E),highly sensitive
same,sensitivity to IGFBP7-mediated growth inhibition,[1]; melanoma cell lines with activating RAS mutation (RASQ61R),partially sensitive
same,survival (Kaplan-Meier),"[2]; 100 μg one day before cell injection and on days 3 and 6, PBS mice died within 18 days",still viable at day 30
same,survival (Kaplan-Meier),"[2]; 100 μg tail vein at days 3, 6 and 9 after cell injection, control mice died at 20 days",still viable at day 30
same,lung metastasis by bioluminescent imaging,"[2]; 100 μg tail vein from day 3, imaged on day 6",no evidence of lung metastasis
same,growth factor-induced ERK activation,[3],blocked
same,RAF inhibitory protein (RKIP) expression,[3]; SK-MEL-28 cells,upregulation
same,levels of activated MEK1/2,[3]; SK-MEL-28 cells,decreased levels
same,phospho-ERK level,"[3]; SK-MEL-28 cells, 24 hours, 0.2-10 μg/ml",dose-dependent loss of phospho-ERK
same,STAT1 recruitment to the SMARCB1 promoter,SK-MEL-28 cells; SK-MEL-28 cells,recruited
same,SMARCB1 and BRG1 recruitment to the BNIP3L promoter,SK-MEL-28 cells; near the transcription start-site,recruited
